From patent publication US10837044B2, “Automated method for analyzing and interpreting an antimicrobial susceptibility” (FONDATION MEDITERRANEE INFECTION, priority 2014, dated 2020)

Assays:
Escherichia coli = experiment: antibiogram by diffusion on Mueller-Hinton agar with antibiotic wafers; assay type: cell-based; conditions: for synergy zone between two antibiotic wafers placed side by side: E. coli strain of BSBL phenotype, champagne-cork shaped inhibition zone; for resistance (I, R) or sensitivity (S): Table C1, disk loads of Table B; for resistant (I/R) or sensitive (S): Table C2, square dish
Klebsiella oxytoca = experiment: as above; assay type: cell-based; conditions: Table C1; K. oxytoca phenotype Wild; six wafers, disk loads of Table B
Proteus mirabilis = experiment: as above; assay type: cell-based; conditions: Table C1, six wafers, disk loads of Table B
Klebsiella pneumoniae = experiment: as above; assay type: cell-based; conditions: for resistance (I, R) or sensitivity (S): Table C1, six wafers, disk loads of Table B; for resistant (I/R) or sensitive (S): Table C2, sixteen wafers, square dish
Enterobacter aerogenes = experiment: as above; assay type: cell-based; conditions: Table C1, six wafers, disk loads of Table B
Enterobacter cloacea = experiment: as above; assay type: cell-based; conditions: Table C1, six wafers, disk loads of Table B
BSBL bacteria = conditions: all of the BSBL bacteria in Table C1
From the text: Synergies are generated with the method on agar by the antibiotics diffusing in the agar as a result of the fact that providing the distance between two antibiotics is small enough (in the range 2 centimeters (cm) to 2.5 cm for Gram negative bacteria) they are capable of diffusing over a common portion of the agar, and as a result it is the association of the two antibiotics in this specific location that makes it possible, where appropriate, to see the appearance of a new inhibition zone, which is the synergy zone.
In the event of synergy occurring, it is possible to see mechanisms of synergy between two antibiotics since an additional inhibition zone appears generally between the two antibiotics in question. It may be in the form of an enlargement of the diameter around the disk A going towards the disk B if A and B present mutual synergy.
The BSBL phenotype includes a synergy phenotype between ceftriaxone and clavulanic acid, and thus between CRO and TCC or AMC (for all of the BSBL bacteria in the table).

[1] = E. coli phenotype BSBL, six wafers
[2] = E. coli phenotype Carbapenemase, six wafers
[3] = E. coli phenotype Hl cephalosporinase, six wafers
[4] = E. coli phenotype Hl penicillinase, six wafers
[5] = E. coli phenotype Inhibitor resistant penicillinase, six wafers
[6] = E. coli phenotype Ll penicillinase, six wafers
[7] = E. coli phenotype Wild, six wafers in a circle
[8] = E. coli phenotype Cephalosporinase + R to fluoroquinolones + R to cotrimoxazole + partial R to aminosides, sixteen wafers
[9] = E. coli phenotype Hl penicillinase + R to fluoroquinolones + R to cotrimoxazole + partial R to aminosides, sixteen wafers
[10] = E. coli phenotype Wild, sixteen wafers in a rectangular grid
[11] = P. mirabilis phenotype Hl cephalosporinase
[12] = P. mirabilis phenotype Hl penicillinase
[13] = P. mirabilis phenotype Inhibitor resistant penicillinase
[14] = P. mirabilis phenotype Ll penicillinase
[15] = K. pneumoniae phenotype Carbapenemase
[16] = K. pneumoniae phenotype Hl cephalosporinase
[17] = K. pneumoniae phenotype Hl penicillinase
[18] = K. pneumoniae phenotype Ll penicillinase
[19] = K. pneumoniae phenotype Cephalosporinase + R to aminosides + R to cotrimoxazole

amoxicillin-clavulanic acid [AMC]
synergy zone between two antibiotic wafers placed side by side (Escherichia coli): synergy zone | synergy zone between two antibiotic wafers placed side by side (Escherichia coli; listed as amoxicillin+clavulanic acid): synergy | resistance (I, R) or sensitivity (S) (Escherichia coli; [1]): R | resistance (I, R) or sensitivity (S) (Escherichia coli; [2]): R | resistance (I, R) or sensitivity (S) (Escherichia coli; [3]): R | resistance (I, R) or sensitivity (S) (Escherichia coli; [4]): I/R | resistance (I, R) or sensitivity (S) (Escherichia coli; [5]): R | resistance (I, R) or sensitivity (S) (Escherichia coli; [6]): S | resistance (I, R) or sensitivity (S) (Escherichia coli; [7]): S | resistant (I/R) or sensitive (S) (Escherichia coli; [8]): R | resistant (I/R) or sensitive (S) (Escherichia coli; [9]): I | resistant (I/R) or sensitive (S) (Escherichia coli; [10]): S | resistance (I, R) or sensitivity (S) (Klebsiella oxytoca): S | resistance (I, R) or sensitivity (S) (Proteus mirabilis; [11]): R | resistance (I, R) or sensitivity (S) (Proteus mirabilis; [12]): I | resistance (I, R) or sensitivity (S) (Proteus mirabilis; [13]): R | resistance (I, R) or sensitivity (S) (Proteus mirabilis; [14]): S | resistance (I, R) or sensitivity (S) (Proteus mirabilis; P. mirabilis phenotype Wild): S | resistance (I, R) or sensitivity (S) (Klebsiella pneumoniae; K. pneumoniae phenotype BSBL): R | resistance (I, R) or sensitivity (S) (Klebsiella pneumoniae; [15]): R | resistance (I, R) or sensitivity (S) (Klebsiella pneumoniae; [16]): I/R | resistance (I, R) or sensitivity (S) (Klebsiella pneumoniae; [17]): I/R | resistance (I, R) or sensitivity (S) (Klebsiella pneumoniae; [18]): S | resistance (I, R) or sensitivity (S) (Klebsiella pneumoniae; K. pneumoniae phenotype Wild): S | resistant (I/R) or sensitive (S) (Klebsiella pneumoniae; [19]): R | resistant (I/R) or sensitive (S) (Klebsiella pneumoniae; K. pneumoniae phenotype Wild): R | resistance (I, R) or sensitivity (S) (Enterobacter aerogenes; E. aerogenes phenotype BSBL): R | resistance (I, R) or sensitivity (S) (Enterobacter aerogenes; E. aerogenes phenotype Wild): S | resistance (I, R) or sensitivity (S) (Enterobacter cloacea; E. cloacae phenotype BSBL): R | resistance (I, R) or sensitivity (S) (Enterobacter cloacea; E. cloacae phenotype Wild): S | synergy phenotype between antibiotics (BSBL bacteria): synergy

CO/N=C(\C(=O)N[C@@H]1C(=O)N2C(C(=O)O)=C(CSc3nc(=O)c(=O)[nH]n3C)CS[C@H]12)c1csc(N)n1 [CRO, ceftriaxone]
synergy zone between two antibiotic wafers placed side by side (Escherichia coli): synergy zone | synergy zone between two antibiotic wafers placed side by side (Escherichia coli; listed as ceftriaxone): synergy | resistance (I, R) or sensitivity (S) (Escherichia coli; [1]): R | resistance (I, R) or sensitivity (S) (Escherichia coli; [2]): R | resistance (I, R) or sensitivity (S) (Escherichia coli; [3]): R | resistance (I, R) or sensitivity (S) (Escherichia coli; [4]): S | resistance (I, R) or sensitivity (S) (Escherichia coli; [5]): S | resistance (I, R) or sensitivity (S) (Escherichia coli; [6]): S | resistance (I, R) or sensitivity (S) (Escherichia coli; [7]): S | resistant (I/R) or sensitive (S) (Escherichia coli; [8]): R | resistant (I/R) or sensitive (S) (Escherichia coli; [9]): S | resistant (I/R) or sensitive (S) (Escherichia coli; [10]): S | resistance (I, R) or sensitivity (S) (Klebsiella oxytoca): S | resistance (I, R) or sensitivity (S) (Proteus mirabilis; [11]): R | resistance (I, R) or sensitivity (S) (Proteus mirabilis; [12]): S | resistance (I, R) or sensitivity (S) (Proteus mirabilis; [13]): S | resistance (I, R) or sensitivity (S) (Proteus mirabilis; [14]): S | resistance (I, R) or sensitivity (S) (Proteus mirabilis; P. mirabilis phenotype Wild): S | resistance (I, R) or sensitivity (S) (Klebsiella pneumoniae; K. pneumoniae phenotype BSBL): I/R | resistance (I, R) or sensitivity (S) (Klebsiella pneumoniae; [15]): R | resistance (I, R) or sensitivity (S) (Klebsiella pneumoniae; [16]): I/R | resistance (I, R) or sensitivity (S) (Klebsiella pneumoniae; [17]): I | resistance (I, R) or sensitivity (S) (Klebsiella pneumoniae; [18]): S | resistance (I, R) or sensitivity (S) (Klebsiella pneumoniae; K. pneumoniae phenotype Wild): S | resistant (I/R) or sensitive (S) (Klebsiella pneumoniae; [19]): R | resistant (I/R) or sensitive (S) (Klebsiella pneumoniae; K. pneumoniae phenotype Wild): R | resistance (I, R) or sensitivity (S) (Enterobacter aerogenes; E. aerogenes phenotype BSBL): R | resistance (I, R) or sensitivity (S) (Enterobacter aerogenes; E. aerogenes phenotype Wild): S | resistance (I, R) or sensitivity (S) (Enterobacter cloacea; E. cloacae phenotype BSBL): R | resistance (I, R) or sensitivity (S) (Enterobacter cloacea; E. cloacae phenotype Wild): S | synergy phenotype between antibiotics (BSBL bacteria): synergy
